# Experimental data: PubChem BioAssay (NCI)
#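 Five concentrations, 48 hours, 96-well plates. TGI is the concentration that stops growth completely.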
# Experiments:
# Assay in all cases: inhibition of tumour cell growth, NCI panel, 48 h
# [1] = system: K-562 leukemia
# [2] = system: SNB-19 CNS
# [3] = system: NCI-H23 lung
# [4] = system: HOP-92 NSCLC
# [5] = system: HT29 colon
# [6] = system: OVCAR-4 ovarian
# [7] = system: IGROV1 ovarian
# [8] = system: SK-MEL-5 melanoma
# [9] = system: UO-31 renal
# [10] = system: COLO 205 colon
# [11] = system: OVCAR-5 ovarian
# [12] = system: NCI-H522 lung
# [13] = system: M14 melanoma
# [14] = system: BT-549 breast
# [15] = system: CCRF-CEM leukemia
# [16] = system: MDA-MB-231 breast
# [17] = system: HL-60(TB) leukemia
# [18] = system: DU-145 prostate
# [19] = system: HCT-116 colon
# [20] = system: SF-295 CNS
# [21] = system: KM12 colon
# [22] = system: UACC-257 melanoma
# [23] = system: TK-10 renal
# [24] = system: A498 renal
# [25] = system: SK-MEL-2 melanoma
# [26] = system: CAKI-1 renal
# [27] = system: ACHN renal
# [28] = system: SK-OV-3 ovarian
# [29] = system: EKVX NSCLC
# [30] = system: PC-3 prostate
# [31] = system: HOP-62 NSCLC
# [32] = system: SW-620 colon
# [33] = system: MDA-N
# [34] = system: HCC-2998 colon
# [35] = system: MDA-MB-435
# [36] = system: RXF 393 renal
# [37] = system: HCT-15 colon
# [38] = system: LOX IMVI melanoma
# [39] = system: SF-539 CNS
# [40] = system: MOLT-4 leukemia
# [41] = system: OVCAR-8 ovarian
# [42] = system: SNB-75 CNS
# [43] = system: SR leukemia
# [44] = system: NCI/ADR-RES ovarian
# [45] = system: UACC-62 melanoma
# [46] = system: U251 CNS
# [47] = system: 786-0 renal
# [48] = system: SK-MEL-28 melanoma
# [49] = system: SN12C renal
# [50] = system: MCF7 breast
# [51] = system: RPMI-8226 leukemia
# [52] = system: MALME-3M melanoma
# [53] = system: A549 NSCLC
# [54] = system: NCI-H460 lung
# [55] = system: T-47D breast
# [56] = system: HS 578T breast
# [57] = system: NCI-H226 lung
# [58] = system: OVCAR-3 ovarian
# [59] = system: SF-268 CNS
compound,measurement,setting,value
N=c1ccc2c(c1)[nH]c1c3ccccc3[nH]c3cccc2c31,TGI,[1],> 100 µM
same,TGI,[2],3 µM
same,TGI,[3],2.94 µM
same,TGI,[4],3.22 µM
same,TGI,[5],2.47 µM
same,TGI,[6],3.23 µM
same,TGI,[7],2.67 µM
same,TGI,[8],3.17 µM
same,TGI,[9],3.14 µM
same,TGI,[10],2.67 µM
same,TGI,[11],3.16 µM
same,TGI,[12],3.06 µM
same,TGI,[13],3.65 µM
same,TGI,[14],13.1 µM
same,TGI,[15],> 100 µM
same,TGI,[16],2.69 µM
same,TGI,[17],> 100 µM
same,TGI,[18],2.95 µM
same,TGI,[19],2.8 µM
same,TGI,[20],2.61 µM
same,TGI,[21],2.6 µM
same,TGI,[22],3.52 µM
same,TGI,[23],3.62 µM
same,TGI,[24],3.2 µM
same,TGI,[25],3.14 µM
same,TGI,[26],3.02 µM
same,TGI,[27],2.74 µM
same,TGI,[28],3 µM
same,TGI,[29],3.1 µM
same,TGI,[30],2.97 µM
same,TGI,[31],2.58 µM
same,TGI,[32],2.02 µM
same,TGI,[33],2.76 µM
same,TGI,[34],2.44 µM
same,TGI,[35],3.2 µM
same,TGI,[36],3.09 µM
O=C(/C=C/c1ccco1)CC(=O)/C=C/c1ccco1,TGI,[1],26.7 µM
same,TGI,[2],31.4 µM
same,TGI,[3],17.4 µM
same,TGI,[4],71.7 µM
same,TGI,[37],20.2 µM
same,TGI,[38],13.8 µM
same,TGI,[6],> 31.6 µM
same,TGI,[39],21.2 µM
same,TGI,[7],> 31.6 µM
same,TGI,[8],18.1 µM
same,TGI,[9],20.2 µM
same,TGI,[40],23 µM
same,TGI,[11],23.3 µM
same,TGI,[12],14.1 µM
same,TGI,[13],> 31.6 µM
same,TGI,[41],> 31.6 µM
same,TGI,[42],> 31.6 µM
same,TGI,[43],17.4 µM
same,TGI,[44],21.7 µM
same,TGI,[14],55.4 µM
same,TGI,[15],16.3 µM
same,TGI,[17],11.7 µM
same,TGI,[19],17.4 µM
same,TGI,[21],> 55.2 µM
same,TGI,[45],> 31.6 µM
same,TGI,[46],19.7 µM
same,TGI,[22],> 100 µM
same,TGI,[47],19.2 µM
same,TGI,[23],61.2 µM
same,TGI,[48],17.5 µM
same,TGI,[24],36.7 µM
same,TGI,[25],22.2 µM
same,TGI,[49],17.5 µM
same,TGI,[50],19.2 µM
same,TGI,[26],26.2 µM
same,TGI,[51],23.9 µM
same,TGI,[27],21 µM
same,TGI,[29],> 31.6 µM
same,TGI,[31],17.3 µM
same,TGI,[52],20.9 µM
same,TGI,[32],17.1 µM
same,TGI,[33],15 µM
same,TGI,[53],24.5 µM
same,TGI,[34],17.3 µM
same,TGI,[54],22.2 µM
same,TGI,[35],22.1 µM
same,TGI,[55],> 31.6 µM
same,TGI,[36],10.6 µM
same,TGI,[56],26.8 µM
C=C1c2nc3ccccc3n2C=C(c2ccccc2)N1c1ccccc1,TGI,[1],> 100 µM
same,TGI,[2],> 100 µM
same,TGI,[3],> 100 µM
same,TGI,[4],> 100 µM
same,TGI,[37],51.9 µM
same,TGI,[38],> 100 µM
same,TGI,[6],> 100 µM
same,TGI,[39],> 100 µM
same,TGI,[7],> 100 µM
same,TGI,[57],> 100 µM
same,TGI,[8],83.3 µM
same,TGI,[9],> 100 µM
same,TGI,[10],> 100 µM
same,TGI,[40],> 100 µM
same,TGI,[11],> 100 µM
same,TGI,[12],> 100 µM
same,TGI,[13],> 100 µM
same,TGI,[41],> 100 µM
same,TGI,[42],> 100 µM
same,TGI,[58],> 100 µM
same,TGI,[43],> 100 µM
same,TGI,[44],> 100 µM
same,TGI,[14],98.5 µM
same,TGI,[15],> 100 µM
same,TGI,[16],> 100 µM
same,TGI,[17],> 100 µM
same,TGI,[18],> 100 µM
same,TGI,[19],> 100 µM
same,TGI,[20],> 100 µM
same,TGI,[21],59.8 µM
same,TGI,[45],> 100 µM
same,TGI,[46],> 100 µM
same,TGI,[22],> 100 µM
same,TGI,[47],> 100 µM
same,TGI,[23],> 100 µM
same,TGI,[24],> 100 µM
same,TGI,[25],> 100 µM
same,TGI,[49],> 100 µM
same,TGI,[50],> 100 µM
same,TGI,[26],> 100 µM
same,TGI,[51],> 100 µM
same,TGI,[27],> 100 µM
same,TGI,[28],> 100 µM
same,TGI,[29],> 100 µM
same,TGI,[30],> 100 µM
same,TGI,[52],> 100 µM
same,TGI,[32],> 100 µM
same,TGI,[33],> 100 µM
same,TGI,[53],> 100 µM
same,TGI,[34],28.8 µM
same,TGI,[54],79.6 µM
same,TGI,[35],> 100 µM
same,TGI,[36],> 100 µM
CC(=O)OCC1OC(n2c(N)c(C#N)c(-c3ccc(C)cc3)c(C#N)c2=S)C(OC(C)=O)C(OC(C)=O)C1OC(C)=O (centres undefined),TGI,[1],> 100 µM
same,TGI,[2],34.8 µM
same,TGI,[3],51.9 µM
same,TGI,[4],28.5 µM
same,TGI,[37],> 100 µM
same,TGI,[5],39.1 µM
same,TGI,[38],> 100 µM
same,TGI,[6],> 100 µM
same,TGI,[39],19.2 µM
same,TGI,[7],45.4 µM
same,TGI,[57],20.1 µM
same,TGI,[8],23.2 µM
same,TGI,[9],31.8 µM
same,TGI,[10],29.4 µM
same,TGI,[11],> 100 µM
same,TGI,[59],28.5 µM
same,TGI,[13],30 µM
same,TGI,[41],28.5 µM
same,TGI,[42],29.5 µM
same,TGI,[58],> 100 µM
same,TGI,[44],91.9 µM
same,TGI,[14],> 100 µM
same,TGI,[15],78.4 µM
same,TGI,[16],> 100 µM
same,TGI,[17],> 100 µM
same,TGI,[18],28.7 µM
same,TGI,[19],> 100 µM
same,TGI,[20],73.8 µM
same,TGI,[21],> 100 µM
same,TGI,[45],> 100 µM
same,TGI,[46],30.6 µM
same,TGI,[22],39.7 µM
same,TGI,[47],29.2 µM
same,TGI,[23],37.9 µM
same,TGI,[48],> 100 µM
same,TGI,[24],> 100 µM
same,TGI,[25],28.5 µM
same,TGI,[49],41 µM
same,TGI,[50],51.3 µM
same,TGI,[26],> 100 µM
same,TGI,[51],80 µM
same,TGI,[27],> 100 µM
same,TGI,[28],66.5 µM
same,TGI,[29],34.7 µM
same,TGI,[30],> 100 µM
same,TGI,[31],47.2 µM
same,TGI,[52],33 µM
same,TGI,[32],> 100 µM
same,TGI,[33],30.9 µM
same,TGI,[53],29.5 µM
same,TGI,[34],34 µM
same,TGI,[54],> 100 µM
same,TGI,[35],79.3 µM
same,TGI,[55],47.8 µM
same,TGI,[36],32.7 µM
same,TGI,[56],38.7 µM
